In patent publication US10799522B2, “Compositions and methods relating to galectin detection” (Wayne State University, priority 2015, dated 2020):

Experiment: radiation dosimetry estimates for human patients
Conditions: adult male
[1] = target organ Urinary Bladder Wall

Question: For `OCC1OC(SC2OC(CO)C(O)C(n3cc(-c4cccc([18F])c4)nn3)C2O)C(O)C(n2cc(-c3cccc(F)c3)nn2)C1O` [[^18F]FPTDG, 3-(3-[^18F]fluorophenyltriazolyl)-3-deoxy-3′-(3-fluorophenyltriazolyl)-3′-deoxy-1-thio-β-D-digalactopyranoside], which “Estimated organ dose, ED Cont.” value (target organ Ovaries) is on record?
Answer: 1.20 mSv per 370 MBq dose or 10 mCi

Question: What about the “Estimated organ dose, EDE Cont.” value (target organ Ovaries) of the same compound?
Answer: 1.50 mSv per 370 MBq dose or 10 mCi

Question: What about the “Estimated organ dose, Photon” value (target organ Ovaries) of the same compound?
Answer: 4.32 mSv per 370 MBq dose or 10 mCi

Question: And the “Estimated organ dose, Total” value (target organ Ovaries)?
Answer: 6.02 mSv per 370 MBq dose or 10 mCi

Question: What about the “Estimated organ dose, Alpha” value (target organ Pancreas) of the same compound?
Answer: 0 mSv per 370 MBq dose or 10 mCi

Question: And the “Estimated organ dose, Beta” value (target organ Pancreas)?
Answer: 1.70 mSv per 370 MBq dose or 10 mCi

Question: And the “Estimated organ dose, ED Cont.” value (target organ Pancreas)?
Answer: 0.03 mSv per 370 MBq dose or 10 mCi

Question: And the “Estimated organ dose, EDE Cont.” value (target organ Pancreas)?
Answer: 0.35 mSv per 370 MBq dose or 10 mCi

Question: And the “Estimated organ dose, Photon” value (target organ Pancreas)?
Answer: 4.2 mSv per 370 MBq dose or 10 mCi

Question: What about the “Estimated organ dose, Total” value (target organ Pancreas) of the same compound?
Answer: 5.90 mSv per 370 MBq dose or 10 mCi

Question: What about the “Estimated organ dose, Alpha” value (target organ Red Marrow) of the same compound?
Answer: 0 mSv per 370 MBq dose or 10 mCi

Question: And the “Estimated organ dose, Beta” value (target organ Red Marrow)?
Answer: 1.21 mSv per 370 MBq dose or 10 mCi

Question: What about the “Estimated organ dose, ED Cont.” value (target organ Red Marrow) of the same compound?
Answer: 0.51 mSv per 370 MBq dose or 10 mCi

Question: What about the “Estimated organ dose, EDE Cont.” value (target organ Red Marrow) of the same compound?
Answer: 0.51 mSv per 370 MBq dose or 10 mCi

Question: What about the “Estimated organ dose, Photon” value (target organ Red Marrow) of the same compound?
Answer: 3.03 mSv per 370 MBq dose or 10 mCi

Question: What about the “Estimated organ dose, Total” value (target organ Red Marrow) of the same compound?
Answer: 4.24 mSv per 370 MBq dose or 10 mCi

Question: And the “Estimated organ dose, Alpha” value (target organ Skin)?
Answer: 0 mSv per 370 MBq dose or 10 mCi

Question: What about the “Estimated organ dose, Beta” value (target organ Skin) of the same compound?
Answer: 1.70 mSv per 370 MBq dose or 10 mCi

Question: What about the “Estimated organ dose, ED Cont.” value (target organ Skin) of the same compound?
Answer: 0.03 mSv per 370 MBq dose or 10 mCi

Question: What about the “Estimated organ dose, EDE Cont.” value (target organ Skin) of the same compound?
Answer: 0.00 mSv per 370 MBq dose or 10 mCi

Question: What about the “Estimated organ dose, Photon” value (target organ Skin) of the same compound?
Answer: 1.76 mSv per 370 MBq dose or 10 mCi

Question: What about the “Estimated organ dose, Total” value (target organ Skin) of the same compound?
Answer: 3.46 mSv per 370 MBq dose or 10 mCi

Question: What about the “Estimated organ dose, Alpha” value (target organ Small Intestine) of the same compound?
Answer: 0 mSv per 370 MBq dose or 10 mCi

Question: And the “Estimated organ dose, Beta” value (target organ Small Intestine)?
Answer: 4.15 mSv per 370 MBq dose or 10 mCi

Question: And the “Estimated organ dose, ED Cont.” value (target organ Small Intestine)?
Answer: 0.04 mSv per 370 MBq dose or 10 mCi

Question: What about the “Estimated organ dose, EDE Cont.” value (target organ Small Intestine) of the same compound?
Answer: 0.50 mSv per 370 MBq dose or 10 mCi

Question: And the “Estimated organ dose, Photon” value (target organ Small Intestine)?
Answer: 4.21 mSv per 370 MBq dose or 10 mCi

Question: What about the “Estimated organ dose, Total” value (target organ Small Intestine) of the same compound?
Answer: 8.36 mSv per 370 MBq dose or 10 mCi

Question: And the “Estimated organ dose, Alpha” value (target organ Spleen)?
Answer: 0 mSv per 370 MBq dose or 10 mCi

Question: What about the “Estimated organ dose, Beta” value (target organ Spleen) of the same compound?
Answer: 1.70 mSv per 370 MBq dose or 10 mCi

Question: And the “Estimated organ dose, ED Cont.” value (target organ Spleen)?
Answer: 0.03 mSv per 370 MBq dose or 10 mCi

Question: And the “Estimated organ dose, EDE Cont.” value (target organ Spleen)?
Answer: 0.00 mSv per 370 MBq dose or 10 mCi

Question: And the “Estimated organ dose, Photon” value (target organ Spleen)?
Answer: 3.52 mSv per 370 MBq dose or 10 mCi

Question: And the “Estimated organ dose, Total” value (target organ Spleen)?
Answer: 5.22 mSv per 370 MBq dose or 10 mCi

Question: And the “Estimated organ dose, Alpha” value (target organ Stomach Wall)?
Answer: 0 mSv per 370 MBq dose or 10 mCi

Question: And the “Estimated organ dose, Beta” value (target organ Stomach Wall)?
Answer: 9.17 mSv per 370 MBq dose or 10 mCi

Question: And the “Estimated organ dose, ED Cont.” value (target organ Stomach Wall)?
Answer: 1.79 mSv per 370 MBq dose or 10 mCi

Question: And the “Estimated organ dose, EDE Cont.” value (target organ Stomach Wall)?
Answer: 0.90 mSv per 370 MBq dose or 10 mCi

Question: And the “Estimated organ dose, Photon” value (target organ Stomach Wall)?
Answer: 5.78 mSv per 370 MBq dose or 10 mCi

Question: What about the “Estimated organ dose, Total” value (target organ Stomach Wall) of the same compound?
Answer: 14.90 mSv per 370 MBq dose or 10 mCi

Question: And the “Estimated organ dose, Alpha” value (target organ Testes)?
Answer: 0 mSv per 370 MBq dose or 10 mCi

Question: What about the “Estimated organ dose, Beta” value (target organ Testes) of the same compound?
Answer: 1.70 mSv per 370 MBq dose or 10 mCi

Question: What about the “Estimated organ dose, ED Cont.” value (target organ Testes) of the same compound?
Answer: 0.00 mSv per 370 MBq dose or 10 mCi

Question: And the “Estimated organ dose, EDE Cont.” value (target organ Testes)?
Answer: 0.00 mSv per 370 MBq dose or 10 mCi

Question: What about the “Estimated organ dose, Photon” value (target organ Testes) of the same compound?
Answer: 2.67 mSv per 370 MBq dose or 10 mCi

Question: What about the “Estimated organ dose, Total” value (target organ Testes) of the same compound?
Answer: 4.37 mSv per 370 MBq dose or 10 mCi

Question: What about the “Estimated organ dose, Alpha” value (target organ Thymus) of the same compound?
Answer: 0 mSv per 370 MBq dose or 10 mCi

Question: And the “Estimated organ dose, Beta” value (target organ Thymus)?
Answer: 1.70 mSv per 370 MBq dose or 10 mCi

Question: What about the “Estimated organ dose, ED Cont.” value (target organ Thymus) of the same compound?
Answer: 0.02 mSv per 370 MBq dose or 10 mCi

Question: And the “Estimated organ dose, EDE Cont.” value (target organ Thymus)?
Answer: 0.00 mSv per 370 MBq dose or 10 mCi

Question: What about the “Estimated organ dose, Photon” value (target organ Thymus) of the same compound?
Answer: 2.63 mSv per 370 MBq dose or 10 mCi

Question: What about the “Estimated organ dose, Total” value (target organ Thymus) of the same compound?
Answer: 4.33 mSv per 370 MBq dose or 10 mCi

Question: And the “Estimated organ dose, Alpha” value (target organ Thyroid)?
Answer: 0 mSv per 370 MBq dose or 10 mCi

Question: And the “Estimated organ dose, Beta” value (target organ Thyroid)?
Answer: 1.70 mSv per 370 MBq dose or 10 mCi

Question: And the “Estimated organ dose, ED Cont.” value (target organ Thyroid)?
Answer: 0.22 mSv per 370 MBq dose or 10 mCi

Question: And the “Estimated organ dose, EDE Cont.” value (target organ Thyroid)?
Answer: 0.13 mSv per 370 MBq dose or 10 mCi

Question: And the “Estimated organ dose, Photon” value (target organ Thyroid)?
Answer: 2.78 mSv per 370 MBq dose or 10 mCi

Question: And the “Estimated organ dose, Total” value (target organ Thyroid)?
Answer: 4.48 mSv per 370 MBq dose or 10 mCi

Question: And the “Estimated organ dose, Alpha” value (target organ ULI Wall)?
Answer: 0 mSv per 370 MBq dose or 10 mCi

Question: What about the “Estimated organ dose, Beta” value (target organ ULI Wall) of the same compound?
Answer: 1.70 mSv per 370 MBq dose or 10 mCi

Question: What about the “Estimated organ dose, ED Cont.” value (target organ ULI Wall) of the same compound?
Answer: 0.03 mSv per 370 MBq dose or 10 mCi

Question: And the “Estimated organ dose, EDE Cont.” value (target organ ULI Wall)?
Answer: 0.00 mSv per 370 MBq dose or 10 mCi

Question: And the “Estimated organ dose, Photon” value (target organ ULI Wall)?
Answer: 4.02 mSv per 370 MBq dose or 10 mCi

Question: And the “Estimated organ dose, Total” value (target organ ULI Wall)?
Answer: 5.71 mSv per 370 MBq dose or 10 mCi

Question: What about the “Estimated organ dose, Alpha” value [1] of the same compound?
Answer: 0 mSv per 370 MBq dose or 10 mCi

Question: And the “Estimated organ dose, Beta” value [1]?
Answer: 1.70 mSv per 370 MBq dose or 10 mCi

Question: What about the “Estimated organ dose, ED Cont.” value [1] of the same compound?
Answer: 0.27 mSv per 370 MBq dose or 10 mCi

Question: And the “Estimated organ dose, EDE Cont.” value [1]?
Answer: 0.00 mSv per 370 MBq dose or 10 mCi

Question: And the “Estimated organ dose, Photon” value [1]?
Answer: 3.63 mSv per 370 MBq dose or 10 mCi

Question: And the “Estimated organ dose, Total” value [1]?
Answer: 5.33 mSv per 370 MBq dose or 10 mCi

Question: And the “Estimated organ dose, Alpha” value (target organ Uterus)?
Answer: 0 mSv per 370 MBq dose or 10 mCi

Question: What about the “Estimated organ dose, Beta” value (target organ Uterus) of the same compound?
Answer: 1.70 mSv per 370 MBq dose or 10 mCi

Question: What about the “Estimated organ dose, ED Cont.” value (target organ Uterus) of the same compound?
Answer: 0.03 mSv per 370 MBq dose or 10 mCi

Question: What about the “Estimated organ dose, EDE Cont.” value (target organ Uterus) of the same compound?
Answer: 0.35 mSv per 370 MBq dose or 10 mCi

Question: What about the “Estimated organ dose, Photon” value (target organ Uterus) of the same compound?
Answer: 4.06 mSv per 370 MBq dose or 10 mCi

Question: What about the “Estimated organ dose, Total” value (target organ Uterus) of the same compound?
Answer: 5.76 mSv per 370 MBq dose or 10 mCi
